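48-hour exposure; five concentrations; linearly interpolated endpoints. TGI marks complete inhibition of growth.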
Assays:
Experiment in all cases: NCI-60 cell line screen, 48 h
786-0 renal = tested on: 786-0 renal
CAKI-1 renal = tested on: CAKI-1 renal
CCRF-CEM leukemia = tested on: CCRF-CEM leukemia
DU-145 prostate = tested on: DU-145 prostate
EKVX NSCLC = tested on: EKVX NSCLC
HCC-2998 colon = tested on: HCC-2998 colon
HCT-15 colon = tested on: HCT-15 colon
IGROV1 ovarian = tested on: IGROV1 ovarian
K-562 leukemia = tested on: K-562 leukemia
LOX IMVI melanoma = tested on: LOX IMVI melanoma
MCF7 breast = tested on: MCF7 breast
MDA-MB-231 breast = tested on: MDA-MB-231 breast
NCI-H23 lung = tested on: NCI-H23 lung
OVCAR-3 ovarian = tested on: OVCAR-3 ovarian
RPMI-8226 leukemia = tested on: RPMI-8226 leukemia
SR leukemia = tested on: SR leukemia
U251 CNS = tested on: U251 CNS
A549 NSCLC = tested on: A549 NSCLC
COLO 205 colon = tested on: COLO 205 colon
SN12C renal = tested on: SN12C renal

Row | Structure (SMILES) | TGI (786-0 renal) [µM] | TGI (CAKI-1 renal) [µM] | TGI (CCRF-CEM leukemia) [µM] | TGI (DU-145 prostate) [µM] | TGI (EKVX NSCLC) [µM] | TGI (HCC-2998 colon) [µM] | TGI (HCT-15 colon) [µM] | TGI (IGROV1 ovarian) [µM] | TGI (K-562 leukemia) [µM] | TGI (LOX IMVI melanoma) [µM] | TGI (MCF7 breast) [µM] | TGI (MDA-MB-231 breast) [µM] | TGI (NCI-H23 lung) [µM] | TGI (OVCAR-3 ovarian) [µM] | TGI (RPMI-8226 leukemia) [µM] | TGI (SR leukemia) [µM] | TGI (U251 CNS) [µM] | TGI (A549 NSCLC) [µM] | TGI (COLO 205 colon) [µM] | TGI (SN12C renal) [µM]
1 | CC1=NN(c2cccc(Cl)c2)C2(SCC(=O)N2c2nc3ccccc3s2)/C1=C\c1ccccc1O (configuration not stated) | 32.3 | 57.5 | > 100 | 42.2 | > 100 | 42 | 34.1 | 80.9 | > 100 | > 100 | > 100 | 67.9 | 41.3 | 80.3 | 40.3 | 37.5 | 53.5 | – | – | –
2 | CC1=NN(c2cccc(Cl)c2)C2(C1=C/C=C/c1ccccc1)C(Cl)C(=O)N2c1nc2ccccc2s1 (configuration not stated) | > 55 | > 49.8 | > 59.3 | > 38.2 | > 100 | 86.8 | > 82.1 | > 100 | 31 | 57 | > 100 | 58.3 | > 80.3 | > 80.9 | 23.5 | 9.54 | 37.2 | > 100 | > 100 | > 100
3 | O=c1c2sc(=S)n(-c3ccc(F)cc3)c2ncn1/N=C/c1ccc(F)cc1F | 34.1 | 32.9 | > 100 | 39.4 | 39.2 | > 100 | > 100 | 89.1 | > 100 | > 100 | > 100 | 53.4 | > 100 | 61.5 | > 100 | > 100 | 52 | > 100 | > 100 | > 100
4 | CCN(CC)CCN(C(=Nc1ccccc1)N1CCOCC1)c1ccccc1 | > 100 | > 100 | > 100 | > 100 | > 100 | > 100 | > 100 | > 100 | > 100 | > 100 | > 100 | > 100 | > 100 | > 100 | > 100 | > 100 | > 100 | > 100 | > 100 | > 100
5 | CCCCCCOc1ccc(C(=O)NOC)cc1 | > 100 | > 100 | > 100 | > 100 | > 100 | > 100 | > 100 | > 100 | > 100 | > 100 | > 100 | > 100 | > 100 | > 100 | > 100 | > 100 | > 100 | > 100 | > 100 | > 100
6 | CC1OC(OC2C(OC(=O)[C@]34CCC(C)(C)C[C@H]3C3=CC[C@@H]5[C@@]6(C)CC[C@H](OC7OC(C(=O)O)C(O)C(O)C7O)C(C)(C)[C@@H]6CC[C@@]5(C)[C@]3(C)C[C@H]4O)OCC(O)C2O)C(O)C(OC2OCC(O)(CO)C2O)C1OC1OCC(O)C(O)C1O (some centres not stated) | 24.7 | 20 | 52.1 | 25.8 | 16.2 | 3.32 | 30 | 33.3 | 35.8 | 26.6 | 18.3 | 12.7 | 7.18 | 27.4 | 26 | 18.9 | 21.4 | 14.8 | 3.36 | 11
7 | CCOP(=O)(OCC)C(c1ccc(F)cc1)N(C(=O)NC(F)(F)F)c1ccc(OC)cc1 (configuration not stated) | > 100 | > 100 | > 100 | > 100 | > 100 | > 100 | > 100 | > 100 | > 100 | > 100 | > 100 | > 100 | > 100 | > 100 | > 100 | > 100 | > 100 | > 100 | > 100 | > 100
8 | CCCC(=O)OC1CC(n2cc(F)c(=O)[nH]c2=O)OC1COP(=O)(OCC(Cl)(Cl)Cl)OCC(Cl)(Cl)Cl (configuration not stated) | > 100 | > 31.6 | 94.4 | > 67.6 | > 100 | 3.34 | > 100 | > 31.6 | – | > 69.6 | > 100 | > 100 | > 100 | 38.8 | 86.4 | 99.4 | > 78.8 | > 94.6 | 59 | > 100
9 | CN1CSC(=S)N(c2c3ccccc3nc3ccc(Br)cc23)C1 | 16.6 | 24 | 22.8 | 22 | 33.1 | 8.3 | 20.4 | 25.1 | > 32.4 | > 53.4 | 24.1 | 22.9 | 23.5 | 33.3 | 31.4 | 12.6 | 20.4 | 21.6 | 20 | 18.8
10 | N#CC12C(=O)N=C(N)C1(C#N)C(c1ccco1)NC1=C2CCCC1 (configuration not stated) | > 100 | > 100 | > 100 | > 100 | > 100 | > 100 | > 100 | > 100 | – | > 100 | > 100 | > 100 | > 100 | – | > 100 | > 100 | > 100 | > 100 | > 100 | > 100
11 | COc1cccc2c(=O)oc(-c3ccc(C(C)(C)C)cc3)nc12 | > 100 | > 100 | > 100 | > 100 | > 100 | 33.5 | > 100 | > 100 | > 100 | 53.9 | > 100 | > 100 | > 100 | 81.8 | > 100 | 63.1 | > 100 | > 100 | > 100 | > 100
12 | COC(=O)C1CCC(=O)N1C(c1ccc(OC)cc1)c1ccc2c(c1)OCO2 (configuration not stated) | > 100 | > 100 | > 100 | > 100 | > 100 | > 100 | > 100 | > 100 | > 100 | > 100 | > 100 | > 100 | > 100 | > 100 | > 100 | > 100 | > 100 | > 100 | > 100 | > 100
13 | Cc1cn(C2CC(O)C(CO)O2)c(=O)[nH]c1=O (configuration not stated) | > 5000 | 4450 | 2390 | > 5000 | 4950 | > 5000 | > 5000 | > 5000 | > 5000 | > 5000 | > 4300 | > 5000 | > 4530 | > 2650 | > 5000 | > 5000 | > 5000 | 4450 | > 5000 | > 4240
14 | O=C1NCCN1/N=C/c1c(Cl)n(-c2ccccc2)c2ccccc12 | 77 | 51.7 | > 100 | 48.4 | 91.5 | 36.2 | 39.9 | 41.7 | 68.1 | 38.9 | 67.3 | 44.1 | 44.8 | > 100 | 52.8 | 85.7 | 58.3 | > 100 | 40.5 | 40.2
15 | OCCc1ccsc1-c1sc(-c2cc(CCO)c(-c3sccc3CCO)s2)cc1CCO | 29 | 44.3 | > 100 | 32.9 | 32.4 | 30.2 | 40.5 | 29.5 | > 100 | 72.3 | 31 | 48.5 | 41 | 32.5 | > 100 | > 100 | 49 | > 100 | 31 | 63.1
16 | COc1cccc2c1OC1(C=C2)Oc2ccccc2C(=O)N1C (configuration not stated) | > 100 | > 100 | 46.2 | > 100 | > 100 | 77.8 | > 100 | > 100 | > 100 | 14.5 | > 100 | > 100 | > 100 | > 100 | > 100 | 54.2 | > 100 | > 100 | > 100 | > 100
17 | O=C(/C=C/c1ccc2c(c1)OCO2)CC(=O)C(=O)c1c[nH]c2ccccc12 | > 100 | > 100 | 69.4 | > 100 | > 100 | 48.4 | > 100 | > 100 | 84.6 | > 100 | > 100 | > 100 | > 100 | > 100 | > 100 | > 100 | > 100 | > 100 | > 100 | > 100
18 | CC1(C)CCCC2OC2CCC(C)(C)C1=O (configuration not stated) | > 100 | > 100 | > 100 | > 100 | > 100 | > 100 | > 100 | > 100 | > 100 | > 100 | > 100 | > 100 | > 100 | > 100 | > 100 | > 100 | > 100 | > 100 | > 100 | > 100
19 | CCCCC(C(=O)NCCNC(=O)CCC(=O)N(C)O)C(=O)NCCNC(=O)CCC(=O)N(C)O | > 100 | > 100 | > 100 | > 100 | > 100 | > 100 | > 100 | > 100 | > 100 | > 100 | > 100 | > 100 | > 100 | > 100 | > 100 | > 100 | > 100 | > 100 | > 100 | > 100
20 | NC1=NCC(CN2CCOCC2)O1 (configuration not stated) | > 100 | > 100 | > 100 | > 100 | > 100 | > 100 | > 100 | > 100 | > 100 | > 100 | > 100 | > 100 | > 100 | > 100 | > 100 | > 100 | > 100 | > 100 | > 100 | > 100
21 | Cc1cccc2c1CC1(C2)Cc2c(C)cccc2C1=O (configuration not stated) | 70.2 | 48.6 | 56.9 | 77.3 | 72.8 | 65.1 | > 100 | > 100 | 70.3 | 38.7 | 94.7 | 53.7 | > 100 | 51.1 | 43 | 37.4 | 65.4 | > 100 | 29.7 | 74.2
22 | O=[N+]([O-])c1ccc(Oc2c(Cl)cc(S(=O)(=O)/N=C(\NO)Nc3ccc(Cl)cc3)cc2Cl)cc1 | 23.5 | 18.9 | 24.5 | 29.3 | 24.9 | 13.1 | 24.5 | 29.8 | 35.9 | 24.9 | 24.1 | 25.3 | 23.6 | 19.4 | 22.8 | 17.2 | 25.7 | 27.8 | 29.9 | 25.8
23 | O=C(Nc1nccs1)c1c(O)nc2sccn2c1=O | – | > 10 | > 10 | > 10 | > 10 | > 10 | > 10 | > 10 | – | > 10 | > 10 | > 10 | > 10 | > 10 | > 10 | > 10 | > 10 | > 10 | > 10 | > 10

— PubChem BioAssay (NCI)
